Calls of active or inactive are those of the source. The rule behind the calls is not given here. Where a SMILES comes first, the peptide text is derived from it. Bridges are numbered along the chain shown (N, C = ends).

The target of test [1] is T1, Coagulation factor XII (Homo sapiens, UniProt P00748).
T1 sequence (P00748 whole entry): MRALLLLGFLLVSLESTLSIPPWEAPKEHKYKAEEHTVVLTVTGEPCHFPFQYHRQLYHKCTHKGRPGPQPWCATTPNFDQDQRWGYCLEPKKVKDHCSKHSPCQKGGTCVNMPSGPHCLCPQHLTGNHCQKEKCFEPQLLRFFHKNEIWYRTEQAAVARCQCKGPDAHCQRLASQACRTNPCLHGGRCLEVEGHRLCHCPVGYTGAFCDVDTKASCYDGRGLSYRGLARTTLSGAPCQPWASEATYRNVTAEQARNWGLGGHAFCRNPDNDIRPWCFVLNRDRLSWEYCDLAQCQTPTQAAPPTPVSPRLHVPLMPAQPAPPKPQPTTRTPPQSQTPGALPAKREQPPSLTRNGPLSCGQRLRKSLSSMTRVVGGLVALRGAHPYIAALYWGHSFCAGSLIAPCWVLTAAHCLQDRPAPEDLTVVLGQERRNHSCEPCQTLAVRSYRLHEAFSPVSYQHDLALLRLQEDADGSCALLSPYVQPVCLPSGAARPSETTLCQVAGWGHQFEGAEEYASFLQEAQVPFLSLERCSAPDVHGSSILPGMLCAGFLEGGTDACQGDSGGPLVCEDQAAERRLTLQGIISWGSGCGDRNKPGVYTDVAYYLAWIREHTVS
Put plainly: Inhibition of human factor 12a using H-D-Pro-Phe-Arg-p-nitroanilide as chromogenic substrate assessed as liberation of p-nitroaniline measured every 5 mins for 60 min by multimode plate reader analysis.

For test [2], the system named is Plasma. Put plainly: Anticoagulant activity in pooled human plasma assessed as prolongation of prothrombin time at 12.5 uM incubated for 7 mins. In kind it is functional, cell-free.
The species entered for a further test is Homo sapiens. Put plainly: Selectivity index, ratio of IC50 for inhibition of human factor 12a using H-D-Pro-Phe-Arg-p-nitroanilide as chromogenic substrate to IC50 for inhibition of human factor 10a using methoxycarbonyl-D-Nle-Gly-Arg-pNA as substrate.
In a further test the target is Coagulation factor X (Homo sapiens, UniProt P00742). Description: Inhibition of human factor 10a using methoxycarbonyl-D-Nle-Gly-Arg-pNA as substrate measured after 60 mins by microplate reader analysis.
Test [3] relates to Plasma. Description: Anticoagulant activity in FXII-deficient human plasma assessed as effect on total thrombin generation using Z-GGR-AMC as fluorogenic substrate at 8 uM by calibrated automated thrombogram analysis. In kind it is functional, cell-free.
The subject of test [4] is Plasma. Description: Anticoagulant activity in pooled human plasma assessed as prolongation of activated partial thromboplastin time at 12.5 uM incubated for 7 mins. In kind it is functional, cell-free.
In test [5] the target is T1, Coagulation factor XII. Description: Inhibition of human factor 12a using H-D-Pro-Phe-Arg-p-nitroanilide as chromogenic substrate assessed as liberation of p-nitroaniline in presence of BSA measured every 5 mins for 60 min by multimode plate reader analysis.
Test [6] deals with Plasma. Put plainly: Anticoagulant activity in pooled human plasma assessed as reduction in ellagic acid induced thrombin generation using Z-GGR-AMC as fluorogenic substrate by calibrated automated thrombogram analysis. In kind it is functional, cell-free.

Chain of Coagulation factor X (P00742 41-179 limits assumed): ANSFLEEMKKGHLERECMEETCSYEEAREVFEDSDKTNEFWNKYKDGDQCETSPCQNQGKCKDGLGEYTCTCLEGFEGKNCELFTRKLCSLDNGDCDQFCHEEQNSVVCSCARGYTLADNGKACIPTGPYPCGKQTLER
Chain of Coagulation factor X (P00742 235-488 limits assumed): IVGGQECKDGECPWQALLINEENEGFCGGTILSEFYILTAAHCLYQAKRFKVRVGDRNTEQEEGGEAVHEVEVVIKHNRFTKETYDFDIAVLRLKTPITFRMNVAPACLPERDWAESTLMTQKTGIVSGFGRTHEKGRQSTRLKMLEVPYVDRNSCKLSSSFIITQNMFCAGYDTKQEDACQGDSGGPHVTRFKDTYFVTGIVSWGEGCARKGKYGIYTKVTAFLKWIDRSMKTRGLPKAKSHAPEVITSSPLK

For the compound `CC[C@H](C)[C@@H]1NC(=O)[C@H](Cc2c[nH]cn2)NC(=O)[C@H](CCCCN)NC(=O)[C@H](Cc2ccccc2)NC(=O)[C@H](CCCNC(=N)N)NC(=O)[C@H](CC(C)C)NC(=O)[C@H](Cc2ccc(O)cc2)NC(=O)CSC[C@@H](C(N)=O)NC(=O)CNC(=O)CNC(=O)[C@H](CC(C)C)NC(=O)[C@H](CO)NC1=O` ({CH2CO}-YLRFKHISLGGC-NH2; thioether N-12), the IC50 (commonly the concentration that gives 50% inhibition) came out at 0.234 µM at Coagulation factor XII [1], 17 µM at Coagulation factor X and 0.311 µM on Coagulation factor XII [5]. Moreover, the result in the test with Plasma [2] and in the test on Plasma [4] was Active. For the same compound, the Ratio IC50 in the test filed under Homo sapiens turned out to be 100. The result in the test on Plasma [3] was inactive. In addition, the EC50 (as a rule, the concentration that produces a half-maximal response) in the test on Plasma [6] came out at 3.2 µM.

Take `CC(C)C[C@@H]1NC(=O)[C@H](CCC(N)=O)NC(=O)[C@H](CCCNC(=N)N)NC(=O)[C@@H]2CSCCC(=O)N3CN(CN(C3)C(=O)CCSC[C@H](NC(=O)[C@@H](N)CCCNC(=N)N)C(=O)N[C@@H](Cc3ccccc3)C(=O)N[C@@H](CCCNC(=N)N)C(=O)N[C@@H](CC(C)C)C(=O)N3CCC[C@H]3C(=O)N2)C(=O)CCSC[C@@H](C(=O)N[C@@H](CCCNC(=N)N)C(=O)O)NC(=O)[C@H](CCCNC(=N)N)NC1=O`: the IC50 at Coagulation factor XII [1] was 0.142 µM; at Coagulation factor XII [5], 0.173 µM.

Regarding `CC(C)C[C@H](NC(=O)[C@H](C)NC(=O)[C@H](CO)NC(=O)[C@H](CCC(=O)O)NC(=O)[C@H](Cc1ccc(O)cc1)NC(=O)[C@H](CCCNC(=N)N)NC(=O)[C@@H]1CSCC(=O)N[C@@H](Cc2ccc(O)cc2)C(=O)N[C@@H](CC(C)C)C(=O)N[C@@H](CCCNC(=N)N)C(=O)N[C@@H](Cc2ccccc2)C(=O)N[C@@H]([C@@H](C)O)C(=O)N[C@@H](CC(C)C)C(=O)N1)C(=O)N[C@@H](CO)C(N)=O` ({CH2CO}-YLRFTLCRYESALS-NH2; thioether N-7), the IC50 at Coagulation factor XII [1] amounted to 0.372 µM; against Coagulation factor X, 2.2 µM; at Coagulation factor XII [5] it was 0.673 µM.

Regarding `CC[C@H](C)[C@@H]1NC(=O)[C@H](CC(C)C)NC(=O)[C@H](Cc2ccc(O)cc2)NC(=O)CSC[C@@H](C(=O)N[C@H](C(=O)N[C@@H](CO)C(=O)N[C@@H](CCCNC(=N)N)C(=O)N[C@@H](CCCNC(=N)N)C(=O)N[C@@H](C)C(=O)N[C@@H](Cc2ccccc2)C(=O)N[C@@H](Cc2ccccc2)C(=O)N[C@H](C(=O)N[C@@H](CC(=O)O)C(=O)N[C@@H](CCC(N)=O)C(=O)N[C@@H](CO)C(N)=O)[C@@H](C)O)C(C)C)NC1=O` ({CH2CO}-YLICVSRRAFFTDQS-NH2; thioether N-4), the IC50 on Coagulation factor XII [1] and against Coagulation factor X was over 100 µM throughout.

The values are drawn from ChEMBL document CHEMBL5042477, “Potent Cyclic Peptide Inhibitors of FXIIa Discovered by mRNA Display with Genetic Code Reprogramming” (J Med Chem, 2021).
